Experimental data taken from ChEMBL document CHEMBL3817790 (Medchemcomm, 2016).

How the values were obtained:
Trypanosoma cruzi [1] = test: Antitrypanosomal activity against epimastigote stage of Trypanosoma cruzi Y assessed as reduction in parasitic count after 96 hrs by Neubauer hemocytometry; assay type: functional, organism-based
Leishmania amazonensis = test: Antileishmanial activity against promastigote stage of Leishmania amazonensis MHOM/BR/75/Josefa assessed as reduction in parasitic count after 72 hrs by Neubauer hemocytometry; assay type: functional, organism-based
Trypanosoma cruzi [2] = test: Antitrypanosomal activity against trypomastigote stage of Trypanosoma cruzi Y assessed as reduction in parasitic viability after 24 hrs by Pizzi-Brener method; assay type: functional, organism-based
[3] = Cytotoxicity against African green monkey Vero cells after 72 hrs by MTT assay; assay type: cell-based; details: chlorocebus sabaeus
Leishmania donovani = test: Antileishmanial activity against promastigote stage of Leishmania donovani after 2 hrs by [3H]thymidine incorporation assay; assay type: functional, organism-based

| IC50 (Trypanosoma cruzi [1]) [µM] | IC50 (Leishmania amazonensis) [µM] | EC50 (Trypanosoma cruzi [2]) [µM] | IC50 (Leishmania donovani) [µM] | SMILES | CC50 at 72 h [3] [µM] |
| --- | --- | --- | --- | --- | --- |
| > 100 | > 100 | > 100 | – | COc1ccc(/C=C(\C)C(C)=O)cc1 | 240 |
| 2.5 | 0.5 | 17.9 | – | CC/C(=C\c1ccc(Cl)cc1)C(=O)/C=C/c1ccc([N+](=O)[O-])cc1 | 36 |
| 17.8 | 19.5 | 21.8 | – | COc1ccc(/C=C(\C)C(=O)/C=C/c2ccccc2Cl)cc1 | 74.3 |
| 1.8 | 1.3 | 20 | – | CC/C(=C\c1ccc(Cl)cc1)C(=O)/C=C/c1ccccc1Br | 24.4 |
| 10.2 | 2.4 | 25.6 | – | CC/C(=C\c1ccc(Cl)cc1)C(=O)/C=C/c1ccc(Cl)cc1 | 28.3 |
| 6.1 | 3.7 | 69.2 | – | COc1ccc(/C=C(\C)C(=O)/C=C/c2cc(OC)c(OC)c(OC)c2)cc1 | 21.4 |
| 21.7 | 21.7 | 25 | – | COc1ccc(/C=C(\C)C(=O)/C=C/c2ccccc2Br)cc1 | 71 |
| 20 | 17.3 | 21.1 | – | COc1ccc(/C=C(\C)C(=O)/C=C/c2ccc(Br)cc2)cc1 | 31.2 |
| 15.2 | 32.2 | 67.6 | – | COc1ccc(/C=C(\C)C(=O)/C=C/c2ccccc2F)cc1 | 81.2 |
| > 100 | 76.3 | > 100 | – | COc1ccc(/C=C(\C)C(=O)/C=C/c2ccc(/C=C/C(=O)/C(C)=C/c3ccc(OC)cc3)cc2)cc1 | 460 |
| 19.6 | 8.2 | 27.9 | – | COc1ccc(/C=C(\C)C(=O)/C=C/c2c(Cl)cccc2Cl)cc1 | 65.7 |
| 17.2 | 17.2 | 20.3 | – | COc1ccc(/C=C(\C)C(=O)/C=C/c2cccc(Br)c2)cc1 | 152 |
| 18.9 | 13.8 | 23 | – | COc1ccc(/C=C(\C)C(=O)/C=C/c2ccc(Cl)cc2)cc1 | 87 |
| 15.1 | 19.3 | 19.7 | – | COc1ccc(/C=C(\C)C(=O)/C=C/c2ccc(F)cc2)cc1 | 68.1 |
| 65.2 | 17.4 | 74.2 | – | CC/C(=C\c1ccc(Cl)cc1)C(=O)/C=C/c1ccc(C=O)cc1 | 46.9 |
| 9.7 | 9.8 | 66.7 | – | COc1ccc(/C=C(\C)C(=O)/C=C/c2ccc(OC)c(OC)c2)cc1 | 74.2 |
| – | – | – | 3.7 | COc1cc(/C=C/C(=O)c2ccc(O)c(O)c2)c(OC)c(OC)c1O | – |
| 16.8 | 13.8 | 14.8 | – | COc1ccc(/C=C(\C)C(=O)/C=C/c2cccc(Cl)c2Cl)cc1 | 119 |
| 5.4 | 1.4 | 19.5 | – | CC/C(=C\c1ccc(Cl)cc1)C(=O)/C=C/c1ccc(Br)cc1 | 29.4 |
| 5.5 | 2 | 19.1 | – | CC/C(=C\c1ccc(Cl)cc1)C(=O)/C=C/c1cccc(OC)c1OC | 21.8 |
| > 100 | 58 | > 100 | – | CC/C(=C\c1ccc(Cl)cc1)C(C)=O | 136 |
| 2.8 | 2.9 | 7.6 | – | CC/C(=C\c1ccc(Cl)cc1)C(=O)/C=C/c1ccc2c(c1)OCO2 | 27.1 |

| SMILES | IC50 (Trypanosoma cruzi [1]) [µM] | IC50 (Leishmania amazonensis) [µM] | EC50 (Trypanosoma cruzi [2]) [µM] | IC50 (Leishmania donovani) [µM] | CC50 at 72 h [3] [µM] |
| --- | --- | --- | --- | --- | --- |
| O=C(Cn1ccnc1[N+](=O)[O-])NCc1ccccc1 [BENZNIDAZOLE] | 6.5 | – | 34.5 | – | – |
